From patent US20190233884A1 (University of Southern California, priority 2016, published 2019)

System: patients with refractory metastatic colorectal cancer (mCRC)
Experiment: PFS, OS and disease control in the testing (validation) cohort of refractory mCRC patients receiving TAS-102 (n=129, Italy), by baseline characteristics, SNP genotype and toxicity
Type: in vivo, human
Details: for OS HR (95% CI)‡ / PFS HR (95% CI) ‡: multivariable; for Disease Control Rate: PD / Disease Control Rate: SD: patients, n (%)
Protocol: All patients underwent the treatment in salvage-line setting. […]
Genomic DNA was extracted from peripheral whole blood in patients of all cohorts using the QIAmp Kit (Qiagen, Valencia, Calif., USA) according to the manufacturer's protocol (www.qiagen.com). The candidate SNPs were genotyped using PCR-based direct DNA sequence analysis by ABI 3100A Capillary Genetic Analyzer and Sequencing Scanner v1.0 (Applied Biosystems). Amplification of extracted DNA was carried out using both forward and reverse primers for each gene polymorphism as shown in Table 1. […] The investigators analyzing SNPs were blinded to the clinical data of the study patients.
The primary endpoint in this study was progression-free survival (PFS), and the secondary endpoints were overall survival (OS) and disease control rate (DCR). PFS was calculated from the date of starting treatment to the first observation of disease progression or death from any cause. If a patient had no disease progression or death, PFS was censored at the date of last follow up. OS was calculated from the date of starting treatment until the date of death from any cause or the date of the last follow-up, at which point OS was censored. The disease control rate (DCR) was defined as the proportion of patients who achieved a stable disease (SD) or […] according to RECISTv1.1. Chi-square test was used to examine the difference in baseline patient characteristics among the three cohorts. Allelic distribution of all SNPs by ethnicity for deviation from Hardy-Weinberg equilibrium and the allelic frequencies of SNPs were tested using the Chi-square tests with one degree of freedom. The associations between candidate SNPs and disease control, and toxicities were examined using contingency tables and Fisher's exact test. The associations of SNPs with PFS and OS were analysed using Kaplan-Meier curves and the log-rank test. Because the true mode of inheritance of candidate SNPs was not established yet, a codominant or dominant genetic model if appropriate was considered.
All patients underwent the treatment in salvage-line setting. […] In all patients, adverse events were graded according to the Common Terminology Criteria for Adverse Events, version 4.0. […]
Genomic DNA was extracted from peripheral whole blood in patients of all cohorts using the QIAmp Kit (Qiagen, Valencia, Calif., USA) according to the manufacturer's protocol (www.qiagen.com). The candidate SNPs were tested using PCR-based direct DNA sequence analysis by ABI 3100A Capillary Genetic Analyzer and Sequencing Scanner v1.0 (Applied Biosystems). […] The investigators analyzing SNPs were blinded to the clinical data.
The primary endpoint in this study was progression-free survival (PFS), and the secondary endpoints were overall survival (OS) and disease control rate (DCR).

[1] = ATR rs2227928 A/A vs G/G, univariate
[2] = ATR rs2227928 Any A vs G/G, univariate
[3] = ATR rs2227928 G/A vs G/G, univariate
[4] = Pin1 rs2233678 G/C and C/C grouped together
[5] = Pin1 rs2233678 G/C and C/C grouped vs G/G
[6] = Pin1 rs2233678 G/C and C/C grouped vs G/G, univariate
[7] = Validation cohort, Neutropenia grade <3
[8] = Validation cohort, Neutropenia grade ≥3 vs <3, univariate
[9] = testing cohort, MATE1_OCT019 Good
[10] = testing cohort, MATE1_OCT019 Good vs Poor
[11] = testing cohort, MATE1_OCT019 Poor

Substance: Trifluridine/tipiracil [TAS-102]
- PFS median, months (95% CI) (ATR rs2227928 A/A): 2.4 months
- OS HR (95% CI)‡ (ATR rs2227928 A/A vs G/G): 1.32
- PFS HR (95% CI) ‡ (ATR rs2227928 A/A vs G/G): 1.03
- OS HR (95% CI)† [1]: 0.94
- PFS HR (95% CI) † [1]: 0.79
- Disease Control Rate: PD (ATR rs2227928 A/A): 14 (56%)
- Disease Control Rate: SD (ATR rs2227928 A/A): 11 (44%)
- OS median, months (95% CI) (ATR rs2227928 Any A): 5.5 months
- PFS median, months (95% CI) (ATR rs2227928 Any A): 2.0 months
- OS HR (95% CI)‡ (ATR rs2227928 Any A vs G/G): 1.35
- PFS HR (95% CI) ‡ (ATR rs2227928 Any A vs G/G): 1.33
- OS HR (95% CI)† [2]: 1.12
- PFS HR (95% CI) † [2]: 1.11
- Disease Control Rate: PD (ATR rs2227928 Any A): 64 (72%)
- Disease Control Rate: SD (ATR rs2227928 Any A): 25 (28%)
- OS median, months (95% CI) (ATR rs2227928 G/A): 5.4 months
- PFS median, months (95% CI) (ATR rs2227928 G/A): 2.0 months
- OS HR (95% CI)‡ (ATR rs2227928 G/A vs G/G): 1.36
- PFS HR (95% CI) ‡ (ATR rs2227928 G/A vs G/G): 1.45
- OS HR (95% CI)† [3]: 1.20
- PFS HR (95% CI) † [3]: 1.26
- Disease Control Rate: PD (ATR rs2227928 G/A): 50 (78%)
- Disease Control Rate: SD (ATR rs2227928 G/A): 14 (22%)
- PFS median, months (95% CI) (ATR rs2227928 G/G): 2.1 months
- Disease Control Rate: PD (ATR rs2227928 G/G): 27 (69%)
- Disease Control Rate: SD (ATR rs2227928 G/G): 12 (31%)
- OS median, months (95% CI) [4]: 5.4 months
- PFS median, months (95% CI) [4]: 2.0 months
- Disease Control Rate: PD [4]: 26 (70%)
- Disease Control Rate: SD [4]: 11 (30%)
- OS HR (95% CI)‡ [5]: 0.97
- PFS HR (95% CI) ‡ [5]: 1.18
- OS HR (95% CI)† [6]: 0.91
- PFS HR (95% CI) † [6]: 1.00
- OS median, months (95% CI) (Pin1 rs2233678 G/G): 5.8 months
- PFS median, months (95% CI) (Pin1 rs2233678 G/G): 2.0 months
- Disease Control Rate: PD (Pin1 rs2233678 G/G): 65 (71%)
- Disease Control Rate: SD (Pin1 rs2233678 G/G): 26 (29%)
- OS median, months (95% CI) [7]: 3.7 (3.3, 5.1) months
- PFS median, months (95% CI) [7]: 1.9 (1.7, 1.9) months
- PFS median, months (95% CI) (Validation cohort, Neutropenia grade ≥3): 2.3 (2.0, 3.7) months
- OS HR (95% CI) [8]: 0.21 (0.10, 0.44)
- PFS HR (95% CI) [8]: 0.50 (0.32, 0.77)
- Disease Control Rate PD [9]: 63 (70%)
- Disease Control Rate SD [9]: 27 (30%)
- Overall Survival Median, months (95% CI) [9]: 5.4 (4.1, 9.0+) months
- Progression-free Survival Median, months (95% CI) [9]: 2.0 (1.9, 2.3) months
- Overall Survival HR (95% CI) multivariate [10]: 1.12 (0.59, 2.10)
- Overall Survival HR (95% CI) univariate [10]: 1.18 (0.64, 2.17)
- Progression-free Survival HR (95% CI) multivariate [10]: 0.91 (0.59, 1.42)
- Progression-free Survival HR (95% CI) univariate [10]: 0.94 (0.62, 1.43)
- Disease Control Rate PD [11]: 28 (74%)
- Disease Control Rate SD [11]: 10 (26%)
